Data on 14 molecules can be found in ChEMBL document CHEMBL3588779, “Novel 3-(1H-indol-3-yl)-2-[3-(4-methoxyphenyl)ureido]propanamides as selective agonists of human formyl-peptide receptor 2” (Bioorg Med Chem, 2015).

Series [1] addresses T1, N-formyl peptide receptor 2 (Homo sapiens, UniProt P25090).
T1 sequence (P25090 whole entry): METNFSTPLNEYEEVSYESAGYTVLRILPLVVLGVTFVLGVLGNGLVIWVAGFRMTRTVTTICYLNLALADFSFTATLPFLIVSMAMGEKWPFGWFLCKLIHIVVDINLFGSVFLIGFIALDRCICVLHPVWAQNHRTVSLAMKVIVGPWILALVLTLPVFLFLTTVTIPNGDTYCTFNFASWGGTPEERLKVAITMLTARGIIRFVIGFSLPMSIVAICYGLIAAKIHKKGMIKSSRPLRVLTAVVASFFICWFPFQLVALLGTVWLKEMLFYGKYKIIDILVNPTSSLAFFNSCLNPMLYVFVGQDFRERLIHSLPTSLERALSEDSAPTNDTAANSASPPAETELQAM
Briefly: Agonist activity at FPR2 in human PMN assessed as stimulation of Ca2+ influx measured every 5 secs for 240 secs by FLIPR assay in presence of probenecid. Type of series: functional.

The target of series [2] is T2, Formyl peptide receptor-related sequence 1 (Mus musculus) (UniProt O08790).
T2 sequence (whole entry): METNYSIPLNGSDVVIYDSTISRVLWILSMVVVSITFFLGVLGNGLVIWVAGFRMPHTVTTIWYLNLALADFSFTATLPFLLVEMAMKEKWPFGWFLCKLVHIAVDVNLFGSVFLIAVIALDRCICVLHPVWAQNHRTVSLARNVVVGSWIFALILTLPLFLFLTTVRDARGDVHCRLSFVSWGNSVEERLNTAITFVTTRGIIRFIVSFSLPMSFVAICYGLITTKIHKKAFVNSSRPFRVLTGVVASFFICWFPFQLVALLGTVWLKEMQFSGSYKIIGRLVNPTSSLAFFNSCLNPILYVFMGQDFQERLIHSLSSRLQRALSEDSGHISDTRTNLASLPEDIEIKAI
Briefly: Agonist activity at FPR2 in BALB/c mouse assessed as stimulation of Ca2+ influx measured every 5 secs for 240 secs by FLIPR assay relative to fMLF. Type of series: functional.

The next series deals with T3, fMet-Leu-Phe receptor (Homo sapiens, UniProt P21462).
T3 sequence (P21462 whole entry): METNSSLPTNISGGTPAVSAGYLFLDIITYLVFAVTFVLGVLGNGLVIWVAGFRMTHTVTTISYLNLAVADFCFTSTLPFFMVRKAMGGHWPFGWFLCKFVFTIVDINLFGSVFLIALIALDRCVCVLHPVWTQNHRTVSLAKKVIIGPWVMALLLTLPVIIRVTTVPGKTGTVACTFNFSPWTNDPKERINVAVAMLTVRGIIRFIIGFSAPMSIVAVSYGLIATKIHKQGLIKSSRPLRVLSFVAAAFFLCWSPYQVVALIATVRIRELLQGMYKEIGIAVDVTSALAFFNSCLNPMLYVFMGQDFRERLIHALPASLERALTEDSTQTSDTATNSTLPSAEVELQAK
In words: Agonist activity at human FPR1 transfected in human HL60 cells assessed as stimulation of Ca2+ influx measured every 5 secs for 240 secs by FLIPR assay. The series is classed as functional, cell-based, HL-60.

The target of series [3] is T1, N-formyl peptide receptor 2. In words: Agonist activity at FPR2 in human PMN assessed as stimulation of Ca2+ influx measured every 5 secs for 240 secs by FLIPR assay in absence of probenecid. Type of series: functional.
For series [4] the target is unchanged. In words: Agonist activity at human FPR2 transfected in human HL60 cells assessed as stimulation of Ca2+ influx measured every 5 secs for 240 secs by FLIPR assay. The series is classed as functional, cell-based, HL-60.
In series [5] the target is T4, N-formyl peptide receptor 2 (Homo sapiens) (UniProt P25090).
T4 sequence (whole entry): T1 sequence (P25090 whole entry)
In words: Agonist activity at human FPR2 transfected in human HL60 cells assessed as stimulation of Ca2+ influx measured every 5 secs for 240 secs by FLIPR assay relative to WKYMVm. Type of series: functional, cell-based. To be noted: HL-60.

Series [6] has as its target T4, N-formyl peptide receptor 2 (Homo sapiens). In words: Agonist activity at FPR2 in human PMN assessed as stimulation of Ca2+ influx measured every 5 secs for 240 secs by FLIPR assay relative to fMLF in presence of probenecid. The series is classed as functional.
Series [7] has as its system Liver microsome. The following applies: rat, microsomes, 1 µM.
Series [8] deals with T5, fMet-Leu-Phe receptor (Homo sapiens) (UniProt P21462).
T5 sequence (whole entry): T3 sequence (P21462 whole entry)
In words: Agonist activity at human FPR1 transfected in human HL60 cells assessed as stimulation of Ca2+ influx measured every 5 secs for 240 secs by FLIPR assay relative to fMLF. The series is classed as functional, cell-based. To be noted: HL-60.

The subject of series [9] is Liver microsome. To be noted: rat, microsomes, 1 µM. The source holds these as a separate data set.
Description: Half life in rat liver microsomes at 1 uM preincubated for 10 mins followed by addition of NADPH regenerating system by LC-MS analysis
For series [10], the target named is T4, N-formyl peptide receptor 2 (Homo sapiens). Briefly: Agonist activity at FPR2 in human PMN assessed as stimulation of Ca2+ influx measured every 5 secs for 240 secs by FLIPR assay relative to fMLF in absence of probenecid. Type of series: functional.

In the case of `COc1ccc(NC(=O)N[C@@H](Cc2c[nH]c3ccccc23)C(=O)NCC2(c3ccc(F)cc3)CCCCC2)cc1`, the EC50 in series [1] (read-out: EC50) was 1100 nM; at fMet-Leu-Phe receptor (hl-60), “Not Active”; in series [3] it was “Not Active”; in [4] (read-out: EC50), 860 nM. Moreover, the Efficacy in series [2] worked out at 25%; in series [5], 40%; in series [6], 55%.

Turning to `COc1ccc(NC(=O)N[C@@H](Cc2c[nH]c3ccccc23)C(=O)NCC2(c3ccc(OC)cn3)CCCCC2)cc1`, the CLH in the series with Liver microsome [7] is 1162.4 µL/min/mg. In addition, the Efficacy was 130% in series [8], 110% in series [2], 120% in series [5] and 105% in [6]. Also, the EC50 at fMet-Leu-Phe receptor (read-out: EC50) was 430 nM. The molecule also gave a t1/2 in the series on Liver microsome [9] of 1.1 min.

On to `COc1ccc(NC(=O)N[C@@H](Cc2c[nH]c3ccccc23)C(=O)NCC2(c3cccnc3)CCCCC2)cc1`, for which the EC50 was 270 nM in [1] (read-out: EC50), “Not Active” at fMet-Leu-Phe receptor (hl-60), 1800 nM in [3] (read-out: EC50) and 730 nM in series [4] (read-out: EC50). Further, the Efficacy in [2] stood at 75%; in [10], 30%; in series [5] it was 75%; in series [6], 105%.

As for `COc1ccc(NC(=O)N[C@H](Cc2c[nH]c3ccccc23)C(=O)NCC2(c3ccc(OC)cn3)CCCCC2)cc1`, in the series on Liver microsome [7], the CLH was 1290.6 µL/min/mg. The Efficacy in series [2] amounted to 30%; in series [10], 40%; in series [5], 100%; in series [6], 95%. Besides, the EC50 result on fMet-Leu-Phe receptor (hl-60) is “Not Active”. In the series on Liver microsome [9], this molecule had a t1/2 of 1.2 min.

As to `COc1ccc(NC(=O)N[C@@H](Cc2c[nH]c3ccccc23)C(=O)NCC2(c3ccccc3)CCCCC2)cc1`, the EC50 result (in series [1]; on fMet-Leu-Phe receptor (hl-60); in series [3]; in series [4] (hl-60)) was “Not Active” throughout. For the same molecule, the Efficacy in series [2] was found to be 60%.

Take `COc1ccc(NC(=O)N[C@H](Cc2c[nH]c3ccccc23)C(=O)NCC2(c3ccnc(F)c3)CCCCC2)cc1`: the EC50 entry (in series [1]; on fMet-Leu-Phe receptor (hl-60); in [3]; in series [4] (hl-60)) was “Not Active” each time. In addition, the Efficacy in series [2] worked out at 65%.

`O=C(O)Cc1ccccc1Nc1c(Cl)cccc1Cl` [DICLOFENAC] had a CLH in the series on Liver microsome [7] of 159.8 µL/min/mg. Also, in the series with Liver microsome [9], the t1/2 amounted to 8.7 min.

Regarding `COc1ccc(NC(=O)N[C@H](Cc2c[nH]c3ccccc23)C(=O)NCC2(c3ccccc3)CCCCC2)cc1`, the EC50 is 970 nM in series [1] (read-out: EC50), “Not Active” at fMet-Leu-Phe receptor (hl-60), “Not Active” in [3] and 260 nM in series [4] (read-out: EC50). The Efficacy in [2] stood at 35%; in series [5], 65%; in [6], 40%.

On to `COc1ccc(C2(CNC(=O)[C@](C)(Cc3c[nH]c4ccccc34)NC(=O)Nc3ccc([N+](=O)[O-])cc3)CCCCC2)nc1`, for which the CLH in the series on Liver microsome [7] is 314.1 µL/min/mg. Further, the t1/2 in the series with Liver microsome [9] is 4.4 min.

Take `COc1ccc(NC(=O)N[C@@H](Cc2c[nH]c3ccccc23)C(=O)NCC2(c3ccnc(F)c3)CCCCC2)cc1`: the EC50 in series [1] (read-out: EC50) is 660 nM; at fMet-Leu-Phe receptor (hl-60), “Not Active”; in series [3] (read-out: EC50) it was 12600 nM; in series [4] (read-out: EC50) it was 1600 nM. Moreover, the Efficacy in [2] stood at 50%; in series [10], 55%; in [5], 115%; in [6], 130%.

With `COc1ccc(NC(=O)N[C@H](Cc2c[nH]c3ccccc23)C(=O)NCC2(c3ccccn3)CCCCC2)cc1`, the EC50 in [1] (read-out: EC50) was 490 nM; on fMet-Leu-Phe receptor (hl-60), “Not Active”; in series [3] (read-out: EC50), 620 nM; in [4] (read-out: EC50), 310 nM. Besides, the CLH with Liver microsome [7] stood at 2476 µL/min/mg. For the same molecule, the Efficacy is 55% in series [2], 40% in series [10], 90% in series [5] and 115% in [6]. The molecule further came in with a t1/2 in the series with Liver microsome [9] of 0.6 min.

Regarding `COc1ccc(NC(=O)N[C@H](Cc2c[nH]c3ccccc23)C(=O)NCC2(c3cccnc3)CCCCC2)cc1`, the concentration giving a half-maximal response (EC50) entry (in [1]; on fMet-Leu-Phe receptor (hl-60); in series [3]; in series [4] (hl-60)) was “Not Active” throughout. Besides, the Efficacy in series [2] was determined as 80%.

As to `COc1ccc(NC(=O)N[C@@H](Cc2c[nH]c3ccccc23)C(=O)NCC2(c3ccccn3)CCCCC2)cc1`, the EC50 in series [1] (read-out: EC50) came out at 450 nM; on fMet-Leu-Phe receptor (read-out: EC50), 950 nM; in series [3] (read-out: EC50) it was 1800 nM; in series [4] (read-out: EC50) it was 430 nM. Further, in the series on Liver microsome [7], the CLH worked out at 2173.4 µL/min/mg. The Efficacy in [8] came out at 115%; in series [2], 80%; in [10], 85%; in series [5] it was 135%; in series [6], 120%.

`COc1ccc(NC(=O)N[C@H](Cc2c[nH]c3ccccc23)C(=O)NCC2(c3ccc(F)cc3)CCCCC2)cc1`: the EC50 result (in [1]; on fMet-Leu-Phe receptor (hl-60); in series [3]; in series [4] (hl-60)) was “Not Active” each time. Further, in [2], the Efficacy amounted to 25%.

What is called EC50 is the concentration that produces a half-maximal response.
